We go through twelve compounds from patent US8809372B2, “Pyridine derivatives” (Endo Pharmaceuticals, Inc., priority 2011, dated 2014).

The target of this assay is T1, human CYP17 in H295R adrenocortical carcinoma cells (Homo sapiens, UniProt P05093).
T1 construct: H295R Adrenocortical carcinoma cells [NCI-H295A, ATCC Number CRL-2128, American Type Culture Collection; host or cells: H295R adrenocortical carcinoma cells
T1 sequence (P05093 1-508): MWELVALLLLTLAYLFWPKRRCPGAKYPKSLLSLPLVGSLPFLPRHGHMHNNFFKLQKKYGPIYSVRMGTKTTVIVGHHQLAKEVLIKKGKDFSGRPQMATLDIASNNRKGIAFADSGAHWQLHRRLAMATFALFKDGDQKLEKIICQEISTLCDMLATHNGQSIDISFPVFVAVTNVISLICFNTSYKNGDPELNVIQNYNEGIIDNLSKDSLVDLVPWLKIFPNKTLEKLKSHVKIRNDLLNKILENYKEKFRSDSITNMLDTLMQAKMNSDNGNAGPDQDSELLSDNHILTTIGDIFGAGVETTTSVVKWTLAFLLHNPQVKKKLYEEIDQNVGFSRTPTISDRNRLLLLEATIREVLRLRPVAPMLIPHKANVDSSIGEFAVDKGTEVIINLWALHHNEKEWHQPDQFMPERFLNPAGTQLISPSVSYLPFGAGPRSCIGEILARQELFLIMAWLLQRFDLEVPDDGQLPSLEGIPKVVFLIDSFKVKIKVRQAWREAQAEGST
Nature of the assay: Cell-based human CYP17 inhibition assay, H295R cells. The settings on record: 16 hours, read-out: CYP17 (human H295R adrenal cells). In short, it runs like this: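 H295R cells or LNCaP cells stably transfected with full-length human CYP17A1 (30,000/well) incubated 16 h at 37 °C with ³H-17α-hydroxypregnenolone and compound (top 10 μM, 3-fold dilutions, up to 10 concentrations). Medium chloroform-extracted and charcoal-treated; aqueous-phase radioactivity counted by scintillation.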

Consider `CC(O)(c1ccncc1)c1ncc(-c2ccc(F)cc2)s1` (stereo not drawn) [Example 14, 1-(5-(4-Fluorophenyl)thiazol-2-yl)-1-(pyridin-4-yl)ethanol], for which the IC50 is less than 50 nM.
With `Cn1cc(-c2ccc(C(C)(O)c3ccncc3)s2)ccc1=O` (single isomer, unassigned; (-)) [Example 17, (−)-5-(5-(1-hydroxy-1-(pyridin-4-yl)ethyl)thiophen-2-yl)-1-methylpyridin-2(1H)-one], the IC50 was less than 50 nM.
Under `Cn1cc(-c2ccc(C(C)(O)c3ccncc3)s2)ccc1=O` (stereo not drawn) [Example 15, 5-(5-(1-Hydroxy-1-(pyridin-4-yl)ethyl)thiophen-2-yl)-1-methyl-pyridin-2(1H)-one] stands 50 to 200 nM; under `COc1ccc(-c2ccc(C(C)(O)c3ccncc3)nc2)cc1` (single isomer, unassigned) [Example 3, 1-(5-(4-methoxyphenyl)-pyridin-2-yl)-1-(pyridin-4-yl)ethanol], 201 to 10000 nM.
Turning to `CC(O)(c1ccncc1)c1cnc(-c2ccc(F)cc2)s1` (single isomer, unassigned) [Example 8, 1-(2-(4-fluorophenyl)thiazol-5-yl)-1-(pyridin-4-yl)ethanol], the IC50 lay in the range of 201 to 10000 nM.
Under `CC(O)(c1ccncc1)c1nc(-c2ccc(F)cc2)no1` (single isomer, unassigned; (+)) [Example 36, (+)-1-(3-(4-fluoro-phenyl)-1,2,4-oxadiazol-5-yl)-1-(pyridin-4-yl)ethanol] stands less than 50 nM; under `CC(O)(c1ccncc1)c1cnc(-c2ccc(F)cc2)s1` (single isomer, unassigned) [Example 9, 1-(2-(4-fluorophenyl)thiazol-5-yl)-1-(pyridin-4-yl)ethanol], less than 50 nM; under `CC(O)(c1ccncc1)c1cnc(-c2ccc(F)cc2)s1` (racemic) [Example 7, 1-(2-(4-Fluorophenyl)thiazol-5-yl)-1-(pyridin-4-yl)ethanol], 50 to 200 nM.
As for `CC(O)(c1ccncc1)c1nc(-c2ccc(F)cc2)no1` (stereo not drawn) [Example 34, 1-(3-(4-Fluorophenyl)-1,2,4-oxadiazol-5-yl)-1-(pyridin-4-yl)ethanol], the IC50 was less than 50 nM.
In the case of `COc1ccc(-c2ccc(C(C)(O)c3ccncc3)nc2)cc1` (single isomer, unassigned) [Example 2, 1-(5-(4-methoxyphenyl)-pyridin-2-yl)-1-(pyridin-4-yl)ethanol], the IC50 was in the range of 50 to 200 nM.
In the case of `CCC(O)(c1ccncc1)c1cnc(-c2ccc(F)cc2)s1` (stereo not drawn) [Example 4, 1-(2-(4-fluorophenyl)-thiazol-5-yl)-1-(pyridin-4-yl)propan-1-ol], the IC50 was 50 to 200 nM.
`COc1ccc(-c2ccc(C(C)(O)c3ccncc3)nc2)cc1` (racemic) [Example 1, 1-(5-(4-Methoxyphenyl)pyridin-2-yl)-1-(pyridin-4-yl)ethanol]: the IC50 was in the range of 50 to 200 nM.
